{"source": "patent US20200009118A1", "about": "“COMPOSITIONS AND METHODS FOR THE TREATMENTOF NEURODEGENERATIVE AND OTHER DISEASES” (Glialogix, Inc., priority 2017, published 2020)", "key": {"mouse model of seizures": {"tested_on": "mouse model of seizures", "details": "approximately 260-320 mg/kg intraperitoneal; cited from earlier work"}, "[1]": {"details": "2 g oral dose, people with ABCG2 genotype 421C/C; cited from earlier work"}, "[2]": {"tested_on": "activated microglial cells", "assay": "Microglial activation (anti-F4/80 area fraction) in spinal cord ventral horn of SOD1 mice", "assay_type": "in vivo, mouse", "details": "Microglia", "excerpt": "(§1) The same test mice, spinal cord preparations and methods of analysis used in the neuroinflammatory study were identical to those used in the xCT quantitation study. Two neuroinflammatory cell populations were quantitated: (1) activated microglial cells using an antibody to the F4/80 antigen, and (2) activated astrocytes, using an antibody to the GFAP antigen. For each objective image, light parameters were optimized and kept consistent across all sections. Images that were captured at 20× were then imported into ImageJ freeware (NIH, Bethesda, Md.). A maximum entropy threshold algorithm was applied to all images in a completely blinded fashion to filter out all pixels that were not stained as DAB positive. 20× images were analyzed in a blinded fashion and mean area fraction occupied by stain was tabulated. Levels of neuroinflammation in the spinal cord were assessed by measuring the area fraction of the area of the ventral horn in the spinal cord occupied by activated astrocytes or microglia. Area fraction was compared with respect to treatment using 1-way ANOVA analysis, with a p-value of 0.05 considered significant.\nFor quantitation of microglial activation, samples were pretreated with Pronase for 20 minutes at RT, followed by treatment with 3% H2O2 for 12 minutes at RT (25° C.). Goat serum was added to 2% and samples incubated for 20 minutes at RT. The samples were then incubated with the primary antibody (Anti-F4/80) purchased from Serotec (Catalog # MCA497R; Oxford, United Kingdom), diluted 1:250 in PBS overnight at 4° C. The secondary antibody (Biotin labeled […]; 1:250 dilution in PBS) was then added and the reaction incubated 1 hour at RT. Reaction products were developed using the Vector ABC system (Vector Labs, Burlingame, Calif.) using avidin-conjugated horseradish peroxidase (45 minutes at RT). Activated microglia were visualized by addition of the chromogenic substrate DAB (3,3′-diaminobenzidine) for 6 minutes at RT."}, "activated astrocytes": {"tested_on": "activated astrocytes", "assay": "Astrocyte activation (anti-GFAP area fraction) in spinal cord ventral horn of SOD1 mice", "assay_type": "in vivo, mouse", "excerpt": "as §1, with “[…] The samples were then incubated” for “Area fraction was compared”, “the primary antibody (Anti-GFAP) purchased from Abcam (Catalog # Ab10062; Cambridge, Mass.), diluted 1:1000 in PBS overnight at 4° C. Reaction products were developed” for “respect to treatment”, “the Vector ImmPress system (Vector Labs, Burlingame, Calif.) using an anti-mouse IgG-conjugated horseradish peroxidase.” for “1-way ANOVA analysis, with a p-value of 0.05 considered significant.”"}, "[3]": {"details": "Cervical, day 100, listed as Sulfasalazine formulation"}, "[4]": {"details": "Cervical, day 100, listed as sulfasalazine formulation"}, "[5]": {"details": "Lumbar, day 85, listed as Sulfasalazine formulation"}, "[6]": {"details": "Lumbar, day 85, listed as sulfasalazine formulation"}, "[7]": {"details": "Lumbar, day 100, listed as Sulfasalazine formulation"}, "[8]": {"details": "Lumbar, day 100, listed as sulfasalazine formulation"}}}
{"smiles": "O=C(O)c1cc(/N=N/c2ccc(S(=O)(=O)Nc3ccccn3)cc2)ccc1O", "note": "[Sulfasalazine, 2-hydroxy-5-[(E)-2-{4-[(pyridin-2-yl)sulfamoyl]phenyl}diazen-1-yl]benzoic acid]", "values": [{"measurement": "anti-epileptic effect, duration", "setting": "mouse model of seizures", "value": "lost between two to three hours after administration"}, {"measurement": "time plasma levels above 10 μg/ml were maintained", "setting": "[1]", "value": "approximately 7 hours"}, {"measurement": "Decreased activation vs. vehicle treated SOD1 mice", "setting": "[2]; Cervical, day 85, listed as Sulfasalazine formulation", "value": "significantly decreased microglial activation"}, {"measurement": "Decreased activation vs. vehicle treated SOD1 mice", "setting": "[2]; Cervical, day 85, listed as sulfasalazine formulation", "value": "Strong decrease (p < 0.01)"}, {"measurement": "Decreased activation vs. vehicle treated SOD1 mice", "setting": "[2]; [3]", "value": "trend towards decreased microglial activation"}, {"measurement": "Decreased activation vs. vehicle treated SOD1 mice", "setting": "[2]; [4]", "value": "Trend"}, {"measurement": "Decreased activation vs. vehicle treated SOD1 mice", "setting": "[2]; Combined, day 85", "value": "Trend"}, {"measurement": "Decreased activation vs. vehicle treated SOD1 mice", "setting": "[2]; Combined, day 100", "value": "No decrease"}, {"measurement": "Decreased activation vs. vehicle treated SOD1 mice", "setting": "[2]; [5]", "value": "reduced microglial activation"}, {"measurement": "Decreased activation vs. vehicle treated SOD1 mice", "setting": "[2]; [6]", "value": "Trend"}, {"measurement": "Decreased activation vs. vehicle treated SOD1 mice", "setting": "[2]; [7]", "value": "did not affect such activation"}, {"measurement": "Decreased activation vs. vehicle treated SOD1 mice", "setting": "[2]; [8]", "value": "No decrease"}, {"measurement": "Decreased activation vs. vehicle treated SOD1 mice", "setting": "[2]; Thoracic, day 85", "value": "No decrease"}, {"measurement": "Decreased activation vs. vehicle treated SOD1 mice", "setting": "[2]; Thoracic, day 100", "value": "No decrease"}, {"measurement": "Decreased activation vs. vehicle treated SOD1 mice", "setting": "activated astrocytes; Cervical, day 85", "value": "No decrease"}, {"measurement": "Decreased activation vs. vehicle treated SOD1 mice", "setting": "activated astrocytes; [3]", "value": "significantly lowered astrocyte activation"}, {"measurement": "Decreased activation vs. vehicle treated SOD1 mice", "setting": "activated astrocytes; [4]", "value": "Strong decrease (p < 0.01)"}, {"measurement": "Decreased activation vs. vehicle treated SOD1 mice", "setting": "activated astrocytes; Combined, day 85", "value": "Decrease (p < 0.05)"}, {"measurement": "Decreased activation vs. vehicle treated SOD1 mice", "setting": "activated astrocytes; Combined, day 100", "value": "Trend"}, {"measurement": "Decreased activation vs. vehicle treated SOD1 mice", "setting": "activated astrocytes; [5]", "value": "significantly lowered astrocyte activation"}, {"measurement": "Decreased activation vs. vehicle treated SOD1 mice", "setting": "activated astrocytes; [6]", "value": "Decrease (p < 0.05)"}, {"measurement": "Decreased activation vs. vehicle treated SOD1 mice", "setting": "activated astrocytes; [7]", "value": "did not affect astrocyte activation"}, {"measurement": "Decreased activation vs. vehicle treated SOD1 mice", "setting": "activated astrocytes; [8]", "value": "No decrease"}, {"measurement": "Decreased activation vs. vehicle treated SOD1 mice", "setting": "activated astrocytes; Thoracic, day 85", "value": "Trend"}, {"measurement": "Decreased activation vs. vehicle treated SOD1 mice", "setting": "activated astrocytes; Thoracic, day 100", "value": "No decrease"}]}
